In patent US5656608A (priority 1995, dated 1997):
Like-named read-outs stand apart in the source and are kept apart here.

Key:
[1] = tested on: tumour necrosis factor (TNF)
in vivo = conditions: rat, iv, 10 mg/kg
[2] = body weight and ethanol intake during ethanol treatment; format: in vivo, Male Wistar rats; conditions: liquid glycine diets; 4 weeks of ethanol
Procedure: (§2) In Male Wistar rats, weighing 300 to 320 mg each, intragastric cannulas were inserted as described by Tsukamoto and French. Cannulas were tunnelled subcutaneously to the dorsal aspect of the neck and attached to infusion pumps by means of a spring-tether device and swivel allowing complete mobility of rats in metabolic cages.
(§3) A liquid diet described by Thompson and Reitz was used.

suspended hepatocytes = conditions: injury by calcium ionophores or oxidative stress; cited from earlier work
liver and lung = conditions: glycine diet; 24 hr after LPS 10 mg/kg
Procedure: d) Liver and lung specimens for histology were taken 24 hr after injection of LPS (10 mg/kg) and hematoxylin-eosin stained.

[3] = tested on: rat liver (previously anoxic pericentral regions); experiment: cells; conditions: for IC50: Rattus norvegicus
Procedure: Animals used: Male Sprague-Dawley rats weighing between 180-210 g and fed a Purina diet. Rats were fasted for 24 h prior to surgery.
Liver Perfusion: Rats were anesthetized with pentobarbital sodium (50 mg) before surgery and livers were removed surgically and perfused via a cannula inserted into the portal vein with Krebs-Henseleit bicarbonate buffer (pH 7.4, 37° C.) saturated with an oxygen-carbon dioxide (95:5) mixture in a non-recirculating system (Krebs-Henseleit, 1932). After surgery, livers were perfused at flow rates around 1 ml/g/min for 75 minutes (low-flow). Subsequently, livers were perfused at normal flow rates (4 ml/g/min) for 40 minutes (reflow).
Lactate dehydrogenase (LDH): LDH activity in the perfusate was determined using standard enzymatic techniques (Bergmeyer, 1988). […] After cooling, samples were centrifuged at 1000×g for 10 minutes and the absorbance of the supernatant was determined at 535 nm. Rates of release of LDH expressed per gram wet weight of liver per hour.
Trypan Blue Distribution Time and Histological Procedures: To assess microcirculation and cell death in the liver, trypan blue was infused into the liver at the end of all experiments at final concentrations of 0.2 mM (Belinsky et al., 1984). The time for the liver surface to turn evenly dark blue was recorded. Excess dye was removed by perfusion with Krebs-Henseleit buffer for an additional 10 minutes. Subsequently, livers were perfused with 1% paraformaldehyde for 10 minutes and fixed tissue was embedded in paraffin and processed for light microscopy. Sections were stained only with eosin, a cytoplasmic stain, so that trypan blue could be identified readily in the nuclei of damaged cells.
All nuclei of parenchymal cells in a zone radiating five cells from either periportal or pericentral regions were identified as trypan blue-positive or negative. The percentage of staining was calculated from the number of stained nuclei divided by the total number of cells in any given region.
Statistical Analysis: Student's-t-test or ANOVA was used where appropriate. Differences were considered significant when the p-value was less than 0.05.

[4] = tested on: AST (Aspartate Aminotransferase); conditions: glycine diet; LPS 10 mg/kg; survivors; untreated fed 2000 IU/L
Procedure: (§1) The rats were then injected lipopolysaccharide (LPS; 10, 20 and 30 mg/kg resp.) from the tail vein and mortality was assessed 24 hours after the injection.
b) From the survivors, the liver enzyme AST (Aspartate Aminotransferase; a transaminase) was measured as indication for liver damage.

[5] = tested on: Asparate Aminotransferase (AST); conditions: for serum AST: 4 weeks, liquid control diet 183 IU/L
Procedure: as §2, §3
Blood was collected via the tail vein once a week and centrifuged. Serum was stored at -20° C. in a microtube until assayed for AST by standard enzymatic procedures.

[6] = tested on: ethanol concentration in breath, feces, urine, blood and stomach; conditions: for ethanol concentration, Feces / ethanol concentration, Stomach: * p < 0.05
Procedure: as §2, §3
Concentration of ethanol in urine, which are representative of blood alcohol levels were measured daily. Rats were housed in metabolic cages that separated urine from feces, and urine was collected over 24 hours in bottles containing mineral oil to prevent evaporation.
ANOVA or Student's t-test was used for determination of statistical significance as appropriate. […] A p value less than 0.05 was selected before the study as the level of significance.

[7] = tested on: partial hepatic ischemia/reperfusion and LPS injection in rats; conditions: glycine diet 3 days; 90 min partial hepatic ischemia/reperfusion; LPS 5 mg/kg; 24 hours; p<0.05; control 0 of 4
Procedure: A sublethal dose of LPS (5 mg/kg) was injected via tail vein 6 hr after reperfusion.

[8] = tested on: liver (steatosis, inflammation and necrosis)
Source text: Rats underwent liver biopsy and autopsy after 2 and 4 weeks of treatment with ethanol. Livers were formalin-fixed, embedded in paraffin and stained with hematoxylin and eosin to assess steatosis, inflammation and necrosis. Liver pathology was scored as described by Nanji et al. as follows: steatosis (the percent liver cells containing fat): <25%=1+; <50%=2+; <75%=3+, >75%=4+; inflammation and necrosis: 1 focus per low-power field=1+; 2 or more=2+.

[9] = tested on: lipopolysaccharide (LPS) endotoxic shock in rats; conditions: for mortality: 5% glycine diet
Procedure: as §1

infection = conditions: in vivo
variety of cells = conditions: anoxia, potassium cyanide and t-butyl hydroxide; cited from earlier work
liver graft = conditions: added to liver graft storage solution; dogs; cited from earlier work
[10] = Table 1, Mean ± S.E.M., ethanol with or without 5% glycine
[11] = Table 1, Mean ± S.E.M., ethanol with or without 5% glycine, ** p < 0.01
[12] = Table 1, Mean ± S.E.M., ethanol with or without 5% glycine, *** p < 0.001
[13] = liquid 2% and 5% glycine diet, 4 weeks

## NCC(=O)O [glycine]
[1]; 5% glycine diet, LPS 10 mg/kg, control 60 min
  time of serum TNF peak after injection: 150 min
[1]; 5% glycine diet, LPS 10 mg/kg, p<0.05, control over 6000 pg/ml
  suppression of serum TNF increase: at least 50%
[1]; following endotoxic shock
  release of TNF into the systemic circulation: significantly reduces the release of TNF
In vivo
  concentration at 6 h: 1730 ± 515 µM
[2]
  body weight: no significant differences in body weight
Suspended hepatocytes
  protection of suspended hepatocytes: not found to protect
Liver and lung
  liver necrosis (histology): less necrosis in the liver
  pulmonary edema (histology): less pulmonary edema
[3]
  LDH release and cell death during reperfusion (in words): minimized LDH release and cell death almost completely
  MDA production during reperfusion: tends to decrease with glycine, changes are not statistically significant
  oxygen uptake (indicator of mitochondrial function): not altered
[3]; 2 mM glycine, 40 minutes of reperfusion, control about 460 seconds
  trypan blue distribution time: about 250 seconds
[3]; 5 and 40 minutes after reflow
  trypan blue distribution time (in words): reduced significantly at 5 and 40 minutes after reflow
[3]; 40 vs 5 minutes after reflow
  change of trypan blue distribution time at later vs earlier time point: about 2 fold
[3]; 5 minutes after reperfusion, control 225 seconds, p<0.05, n=5
  trypan blue distribution time: about 190 seconds
[3]; 40 min, read-out: half maximal decrease of trypan blue distribution time, 40 minutes of reflow
  IC50: 180 µM
[3]; read-out: half-maximal decrease of LDH release, rat liver, glycine infused from 10 min before reflow
  IC50: 180 µM
[3]; read-out: half-maximal effect (trypan blue distribution time; cytoprotective effect), reflow liver perfusion
  IC50: 180 µM
[3]; glycine 0.06-2 mM
  enzyme (LDH) release, dose dependence (in words): minimizes enzyme release in a dose-dependent manner
[3]; physiological concentrations of 240-300 mmol (in humans)
  protection in the rat liver reperfusion model: more than half maximal protection
Kupffer cells
  ischemic/endotoxic liver and organ damage, activation of Kupffer cells: prevents or at least substantially suppresses
[4]
  AST level: markedly and significantly reduced
[5]; both glycine treatments, every point during the study
  increase of serum AST (in words): attenuated significantly
[5]; liquid 2% glycine diet
  serum AST: 66 IU/L
[5]; liquid 5% glycine diet
  serum AST: 100 IU/L
[6]; [10]
  ethanol concentration, Feces: 15 ± 11
  ethanol concentration, Stomach: 26
[6]; [11]
  ethanol concentration, Blood Tail Vein: 21 ± 13
  ethanol concentration, Urine A.M.: 26 ± 25
[6]; [12]
  ethanol concentration, Blood Portal: 10 ± 7
  ethanol concentration, Breath: 5 ± 4
  ethanol concentration, Urine 24 hr: 24 ± 8
[6]; glycine-treated rats
  alcohol in stomach contents (in words): reduced dramatically
[6]; liquid 2% glycine diet
  reduction of the mean urine alcohol concentration: 50%
[6]; liquid 5% glycine diet
  reduction of the mean urine alcohol concentration: 70%
[6]; liquid glycine diets
  daily urine alcohol concentration (in words): very low but were still cyclic
[6]; rat, in vivo
  transfer of alcohol from the stomach into the blood: prevents the transfer of alcohol from the stomach into the blood
[7]
  survival: 5 rats out of 6
[8]; [13]
  fatty changes (steatosis): attenuated
  necrosis and inflammation: almost totally absent
[8]; liquid glycine diets
  inflammation (statistics): only a tendency for reduction
  reductions of steatosis and necrosis (statistics): statistically significantly
[8]; rat
  liver injury due to chronic intragastric ethanol exposure: prevents liver injury
[9]; 5% glycine diet 3 days, LPS 10 mg/kg, control 50% mortality, p<0.05
  protection against LPS mortality: 100%
[9]; LPS 20 mg/kg, control 70%
  mortality: 30%
[9]; LPS 30 mg/kg, control 100%
  mortality: 90%
infection
  protective effect compared with fish oil: more profound and acute than that obtainable by fish oil treatment
Variety of cells
  cell damage: reduce cell damage
Liver graft
  survival: did not improve survival

## CCO [ethanol, reference compound]
[6]; [10]
  ethanol concentration, Feces: 82 ± 21
  ethanol concentration, Stomach: 761 ± 625
[6]; [11]
  ethanol concentration, Blood Tail Vein: 199 ± 45
[6]; [12]
  ethanol concentration, Blood Portal: 357 ± 65
  ethanol concentration, Breath: 108 ± 12
[6]; rat, in vivo, po
  ethanol concentration, Urine A.M.: 184 ± 12
  urine alcohol level, upper end of cyclic fluctuation: greater than 300 mg/dl
